US20230203044A1, “PYRAZOLO[1,5-D][1,2,4]TRIAZINE-5(4H)-ACETAMIDES AS INHIBITORS OF THE NLRP3 INFLAMMASOME” (JANSSEN PHARMACEUTICA NV, priority 2020, published 2023)
Like-named read-outs stand apart in the source and are kept apart here.

What was measured:
[1] = system: NLRP3 inflammasome; test: PBMC assay: IL-1β in LPS-stimulated human PBMCs (MSD); assay type: cell-based; conditions: read-out: IL1β IC50
Protocol: The activity of a compound according to the present invention can be assessed by in vitro methods.
Peripheral venous blood was collected from healthy individuals and human peripheral blood mononuclear cells (PBMCs) were isolated from blood by Ficoll-Histopaque (Sigma-Aldrich, A0561) density gradient centrifugation. After isolation, PBMCs were stored in liquid nitrogen for later use. Upon thawing, PBMC cell viability was determined in growth medium (RPMI media supplemented with 10% fetal bovine serum, 1% Pen-Strep and 1% L-glutamine). […] PBMCs were added at a density of 7.5×10^4 cells per well and incubated for 30 min in a 5% CO2 incubator at 37° C. LPS stimulation was performed by addition of 100 ng/ml LPS (final concentration, Invivogen, tlrl-smlps) for 6 hrs followed by collection of cellular supernatant and the analysis of IL-1β (μM) and TNF cytokines levels (μM) via MSD technology according to manufacturers' guidelines (MSD, K151A0H).

[2] = system: TNF; test: PBMC assay: TNF cytokine levels in LPS-stimulated human PBMCs (MSD); assay type: cell-based; conditions: 100 ng/ml LPS for 6 hrs, TNF in supernatant via MSD
Protocol: Peripheral venous blood was collected from healthy individuals and human peripheral blood mononuclear cells (PBMCs) were isolated from blood by Ficoll-Histopaque (Sigma-Aldrich, A0561) density gradient centrifugation. After isolation, PBMCs were stored in liquid nitrogen for later use. Upon thawing, PBMC cell viability was determined in growth medium (RPMI media supplemented with 10% fetal bovine serum, 1% Pen-Strep and 1% L-glutamine). Compounds were spotted in a 1:3 serial dilution in DMSO and diluted to the final concentration in 30 μl medium in 96 well plates (Falcon, 353072). PBMCs were added at a density of 7.5×10^4 cells per well and incubated for 30 min in a 5% CO2 incubator at 37° C. LPS stimulation was performed by addition of 100 ng/ml LPS (final concentration, Invivogen, tlrl-smlps) for 6 hrs followed by collection of cellular supernatant and the analysis of IL-1β (μM) and TNF cytokines levels (μM) via MSD technology according to manufacturers' guidelines (MSD, K151A0H).
The IC50 values (for IL-1β) and EC50 values (TNF) were obtained on compounds of the invention/examples, and are depicted in the following table: […]

[3] = human PBMCs, 100 ng/ml LPS for 6 hrs, IL-1β in supernatant via MSD

SMILES	IC50 [1, 3]	EC50 [2]	IC50 ([1]; Homo sapiens, 6 h)
CC(C)c1nn(CC(=O)Nc2ccncn2)c(=O)c2cc(N(C)C)nn12 [Final Cpd 22]	1.35 µM	> 10 µM	–
CC(C)c1nn(CC(=O)Nc2ccc3nncn3c2)c(=O)c2cc(I)nn12 [Final Cpd 23]	0.055 µM	> 10 µM	–
CC(C)c1nn(CC(=O)N[C@H]2C[C@@](C)(O)C2)c(=O)c2cc(I)nn12 [Final Cpd 24]	0.11 µM	> 10 µM	–
CC(C)c1nn(CC(=O)NC2CCC(=O)N(CC3CC3)C2)c(=O)c2cc(C3CC3)nn12 (stereo not shown) [Final Cpd 25]	2.34 µM	> 10 µM	–
CC(C)c1nn(CC(=O)N[C@@H]2CCC(=O)N(CC3CC3)C2)c(=O)c2cc(C3CC3)nn12 [Final Cpd 26]	> 10 µM	> 10 µM	–
CC(C)c1nn(CC(=O)N[C@H]2CCC(=O)N(CC3CC3)C2)c(=O)c2cc(C3CC3)nn12 [Final Cpd 27]	0.99 µM	> 10 µM	–
CC(C)c1nn(CC(=O)Nc2ccc(=O)n(C)c2)c(=O)c2cc(C3CC3)nn12 [Final Cpd 28]	0.38 µM	> 10 µM	–
CC(C)c1nn(CC(=O)NC2CCC(=O)N(C)C2)c(=O)c2cc(C3CC3)nn12 (stereo not shown) [Final Cpd 29]	1.79 µM	> 10 µM	–
CC(C)c1nn(CC(=O)N[C@@H]2CCC(=O)N(C)C2)c(=O)c2cc(C3CC3)nn12 [Final Cpd 30]	1.43 µM	> 10 µM	–
CC(C)c1nn(CC(=O)N[C@H]2CCC(=O)N(C)C2)c(=O)c2cc(C3CC3)nn12 [Final Cpd 31]	0.69 µM	> 10 µM	–
CC(C)c1nn(CC(=O)Nc2ccnnc2)c(=O)c2cc(C3CC3)nn12 [Final Cpd 32]	0.15 µM	> 10 µM	–
CC(C)c1nn(CC(=O)N[C@@H]2CCOC[C@@H]2O)c(=O)c2cc(C3CC3)nn12 [Final Cpd 33]	1.56 µM	> 10 µM	–
CC(C)c1nn(CC(=O)N[C@H]2CN(C(=O)OC(C)(C)C)CC[C@H]2O)c(=O)c2cc(C3CC3)nn12 [Final Cpd 34]	5.66 µM	> 10 µM	–
CC(C)c1nn(CC(=O)Nc2ccc(=O)n(CC3CC3)c2)c(=O)c2cc(C3CC3)nn12 [Final Cpd 35]	0.38 µM	> 10 µM	–
CC(C)c1nn(CC(=O)NC2CCOCC2)c(=O)c2cc(C3CC3)nn12 [Final Cpd 36]	0.97 µM	> 10 µM	–
CN(C)c1nn(CC(=O)Nc2ccc3nncn3c2)c(=O)c2cc(C3CC3)nn12 [Final Cpd 37]	0.56 µM	> 10 µM	–
COCCN(C)c1nn(CC(=O)Nc2ccc3nncn3c2)c(=O)c2cc(C3CC3)nn12 [Final Cpd 38]	> 10 µM	> 10 µM	–
COCCNc1nn(CC(=O)Nc2ccc3nncn3c2)c(=O)c2cc(C3CC3)nn12 [Final Cpd 39]	2.49 µM	> 10 µM	–
CC(C)c1nn(CC(=O)N[C@H]2C[C@@](C)(O)C2)c(=O)c2cc(NCC(F)(F)F)nn12 [Final Cpd 41]	0.88 µM	> 10 µM	–

SMILES	IC50 [1, 3]	EC50 [2]	IC50 ([1]; Homo sapiens, 6 h)
CC(C)c1nn(CC(=O)Nc2ccc3nncn3c2)c(=O)c2cc(NCC(F)(F)F)nn12 [Final Cpd 42]	0.22 µM	> 10 µM	–
CC(C)c1nn(CC(=O)N[C@H]2C[C@@](C)(O)C2)c(=O)c2c(F)c(C3CC3)nn12 [Final Cpd 43]	1.06 µM	> 10 µM	–
CC(C)c1nn(CC(=O)Nc2ccc3nncn3c2)c(=O)c2c(F)c(C3CC3)nn12 [Final Cpd 44]	0.62 µM	> 10 µM	–
Cc1nn(CC(=O)NCc2ccc(F)cc2)c(=O)c2cc(C3CC3)nn12 [Final Cpd 47]	> 10 µM	> 10 µM	–
Cc1nn(CC(=O)Nc2ccncn2)c(=O)c2cc(C3CC3)nn12 [Final Cpd 48]	0.89 µM	> 10 µM	–
Cc1nn(CC(=O)NCc2cccnc2)c(=O)c2cc(C3CC3)nn12 [Final Cpd 49]	> 10 µM	> 10 µM	–
Cc1nn(CC(=O)N[C@]2(Cc3ccccc3)C[C@H](O)C2)c(=O)c2cc(C3CC3)nn12 [Final Cpd 50]	> 10 µM	> 10 µM	–
Cc1nn(CC(=O)NC2(C(F)(F)F)CCOC2)c(=O)c2cc(C3CC3)nn12 (stereo not shown) [Final Cpd 51]	> 10 µM	> 10 µM	–
Cc1nn(CC(=O)N[C@H]2C[C@H](N(C)Cc3ccccc3)C2)c(=O)c2cc(C3CC3)nn12 [Final Cpd 52]	2.31 µM	> 10 µM	–
Cc1nn(CC(=O)N[C@H]2C[C@@H](OCc3ccccc3Cl)C2)c(=O)c2cc(C3CC3)nn12 [Final Cpd 53]	> 10 µM	> 10 µM	–
Cc1nn(CC(=O)N[C@@H]2COC[C@H]2N2CCCCC2)c(=O)c2cc(C3CC3)nn12 [Final Cpd 54]	–	> 10 µM	> 10 µM
Cc1nn(CC(=O)N[C@@H]2COC[C@@H]2CC(C)C)c(=O)c2cc(C3CC3)nn12 [Final Cpd 55]	> 10 µM	> 10 µM	–
Cc1nn(CC(=O)N[C@@H]2CCN(c3nc4cccnc4o3)C2)c(=O)c2cc(C3CC3)nn12 [Final Cpd 56]	6.97 µM	> 10 µM	–
Cc1nn(CC(=O)NC2(CO)CCCC2)c(=O)c2cc(C3CC3)nn12 [Final Cpd 57]	> 10 µM	> 10 µM	–
Cc1noc(C)c1[C@@H](c1ccccc1)N1CC(NC(=O)Cn2nc(C)n3nc(C4CC4)cc3c2=O)C1 [Final Cpd 58]	9.41 µM	> 10 µM	–
Cc1nn(CC(=O)N[C@H]2CCN(Cc3ccncc3)C2)c(=O)c2cc(C3CC3)nn12 [Final Cpd 59]	> 10 µM	> 10 µM	–
Cc1nn(CC(=O)NC2CN([C@H](c3ccccc3)c3cncnc3)C2)c(=O)c2cc(C3CC3)nn12 [Final Cpd 60]	> 10 µM	> 10 µM	–
COC(=O)C12CC(NC(=O)Cn3nc(C)n4nc(C5CC5)cc4c3=O)(C1)C2 [Final Cpd 61]	0.064 µM	> 10 µM	–
Cc1nn(CC(=O)NC2(C)CCC2)c(=O)c2cc(C3CC3)nn12 [Final Cpd 62]	8.53 µM	> 10 µM	–

SMILES	IC50 [1, 3]	EC50 [2]	IC50 ([1]; Homo sapiens, 6 h)
Cc1nn(CC(=O)NC2(c3ccc(Cl)cc3Cl)CCC2)c(=O)c2cc(C3CC3)nn12 [Final Cpd 63]	7.89 µM	> 10 µM	–
Cc1nn(CC(=O)N[C@]23CC[C@H](CC2)C3)c(=O)c2cc(C3CC3)nn12 [Final Cpd 64]	5.5 µM	> 10 µM	–
Cc1nn(CC(=O)NC2CCCC2O)c(=O)c2cc(C3CC3)nn12 (stereo not shown) [Final Cpd 65]	4.19 µM	> 10 µM	–
Cc1nn(CC(=O)NC2CC(c3ccc(O)cc3)C2)c(=O)c2cc(C3CC3)nn12 (stereo not shown) [Final Cpd 66]	3.55 µM	> 10 µM	–
Cc1nn(CC(=O)NC23CCCC2C2CCCC23)c(=O)c2cc(C3CC3)nn12 (stereo not shown) [Final Cpd 67]	> 10 µM	> 10 µM	–
CCCCc1nn(CC(=O)Nc2ccc3nncn3c2)c(=O)c2cc(C3CC3)nn12 [Final Cpd 68]	0.78 µM	> 10 µM	–
CC(C)Cc1nn(CC(=O)Nc2ccc3nncn3c2)c(=O)c2cc(C3CC3)nn12 [Final Cpd 69]	~2.45 µM	> 10 µM	–
CC(C)c1nn(CC(=O)Nc2ccncn2)c(=O)c2cc(C(C)(C)C)nn12 [Final Cpd 70]	0.62 µM	> 10 µM	–
CC(C)c1nn(CC(=O)N[C@H]2C[C@@](C)(O)C2)c(=O)c2cc(C(C)(C)C)nn12 [Final Cpd 71]	0.54 µM	> 10 µM	–
CCNc1cc2c(=O)n(CC(=O)Nc3ccncn3)nc(C(C)C)n2n1 [Final Cpd 72]	0.054 µM	> 10 µM	–
CCNc1cc2c(=O)n(CC(=O)N[C@H]3C[C@@](C)(O)C3)nc(C(C)C)n2n1 [Final Cpd 73]	0.11 µM	> 10 µM	–
CCNc1cc2c(=O)n(CC(=O)Nc3ccc(=O)n(C)n3)nc(C(C)C)n2n1 [Final Cpd 74]	0.22 µM	> 10 µM	–
CCNc1cc2c(=O)n(CC(=O)Nc3ccc4nncn4c3)nc(C(C)C)n2n1 [Final Cpd 75]	0.024 µM	7.04 µM	–
CCc1nn(CC(=O)NC2CC2)c(=O)c2ccnn12 [Final Cpd 76, N-cyclopropyl-2-(7-ethyl-4-oxopyrazolo[1,5-d][1,2,4]triazin-5(4H)-yl)acetamide]	> 10 µM	> 10 µM	–
CCc1nn(CC(=O)Nc2ccccc2OC)c(=O)c2ccnn12 [Final Cpd 77]	> 10 µM	> 10 µM	–
CCc1nn(CC(=O)NC2CCCC2)c(=O)c2ccnn12 [Final Cpd 78]	> 10 µM	> 10 µM	–
CCc1nn(CC(=O)Nc2ccncc2)c(=O)c2ccnn12 [Final Cpd 79]	> 10 µM	> 10 µM	–
CC(C)c1nn(CC(=O)Nc2ccc3nncn3c2)c(=O)c2cc(C3CC3)nn12 [Final Cpd 80]	0.08 µM	> 10 µM	–
